Like-named read-outs stand apart in the source and are kept apart here.
Experiments:
[1] = tested on: isolated rat liver mitochondria; settings: positive control alamethicin treated samples
[2] = tested on: isolated rat liver mitochondria; assay: Mitochondrial ROS production (CM-H2DCFDA); settings: DMSO treated samples set as 1
[3] = tested on: RCC III; assay: RCC III activity in submitochondrial particles; format: biochemical, rat; parameters: key to RCC III at 100XCmax: activity relative to DMSO-treated controls (control set as 1 = 100%); settings: 100XCmax
How it was run: (§1)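 Inhibitors preincubated 15 min with submitochondrial particles (1 mg/ml) before activity readout. RCC I (rotenone-sensitive fraction) and I/V: A340, and RCC II: A600, each every 1 min for 6 min; RCC III/IV: A550 every 10 s for 2 min. Activities relative to DMSO control set as 1.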

[4] = tested on: isolated rat liver mitochondria; assay: Mitochondrial oxygen consumption (glutamate/malate or succinate driven, state 4 and state 3); format: biochemical; settings: DMSO treated samples set as 1; for State 3 respiration driven by succinate at 10XCmax: key: 0 indicates that the drug had no effects (negative); for State 3 respiration driven by succinate at 1XCmax: key: 0 indicates that the drug had no effects (negative)
How it was run: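 Rat liver mitochondria (1 mg/ml protein) exposed 5 min to kinase inhibitors in 0.1% DMSO, then O2 consumption measured by Clark-type electrode with glutamate/malate or succinate (state 4), ADP added after 3 min (state 3). Rates normalized to 0.1% DMSO controls set to 1.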

[5] = tested on: isolated rat liver mitochondria; assay: Mitochondrial swelling (absorbance at 535 nm); format: biochemical; settings: difference in signal between KI and DMSO treated samples at the end of experiments; for Swelling 5XCmax: key: 0 indicates that the drug had no effects (negative)
[6] = tested on: RCC I; assay: RCC I activity in submitochondrial particles; format: biochemical, rat; parameters: key to RCC I at 10XCmax / RCC I at 100XCmax / RCC I at 50XCmax / RCC I at 30XCmax / RCC I at 20XCmax: activity relative to DMSO-treated controls (control set as 1 = 100%); settings: 10XCmax; DMSO treated samples set as 1
How it was run: as §1

[7] = cited from earlier work
[8] = tested on: RCC V; assay: RCC V activity in submitochondrial particles; format: biochemical, rat; settings: DMSO treated samples set as 1; for RCC V at 5XCmax: key: 0 indicates that the drug had no effects (negative)
How it was run: as §1

[9] = target: T1, RCC II (Rattus norvegicus, UniProt P21913+Q641Z9+Q6PCT8+Q920L2); assay: RCC II activity in submitochondrial particles; format: biochemical; parameters: key: activity relative to DMSO-treated controls (control set as 1 = 100%); settings: DMSO treated samples set as 1
T1 construct: Submitochondrial particles were prepared by subjecting the intact mitochondria to three successive freeze–thaw cycles; from tissue; host or cells: rat liver mitochondria, used as submitochondrial particles
How it was run: as §1

[10] = cited from earlier work; remark: listed apart in the source

T1 sequence (Q920L2 35-656): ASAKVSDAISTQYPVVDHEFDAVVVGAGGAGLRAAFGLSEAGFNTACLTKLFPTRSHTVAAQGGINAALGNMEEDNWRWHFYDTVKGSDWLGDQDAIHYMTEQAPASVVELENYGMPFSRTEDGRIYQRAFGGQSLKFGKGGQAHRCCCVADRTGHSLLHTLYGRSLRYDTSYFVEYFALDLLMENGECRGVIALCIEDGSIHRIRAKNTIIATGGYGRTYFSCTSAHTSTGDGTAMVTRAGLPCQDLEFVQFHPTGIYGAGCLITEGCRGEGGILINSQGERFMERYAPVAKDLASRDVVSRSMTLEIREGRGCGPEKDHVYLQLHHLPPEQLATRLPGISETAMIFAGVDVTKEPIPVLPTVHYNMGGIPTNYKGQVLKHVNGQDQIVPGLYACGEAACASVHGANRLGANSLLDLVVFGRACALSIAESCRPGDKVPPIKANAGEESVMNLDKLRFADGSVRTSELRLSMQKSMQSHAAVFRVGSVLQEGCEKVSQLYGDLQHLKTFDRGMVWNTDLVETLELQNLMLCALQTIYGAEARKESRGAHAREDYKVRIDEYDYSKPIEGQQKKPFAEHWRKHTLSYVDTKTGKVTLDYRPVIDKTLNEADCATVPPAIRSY
T1 sequence (P21913 31-282): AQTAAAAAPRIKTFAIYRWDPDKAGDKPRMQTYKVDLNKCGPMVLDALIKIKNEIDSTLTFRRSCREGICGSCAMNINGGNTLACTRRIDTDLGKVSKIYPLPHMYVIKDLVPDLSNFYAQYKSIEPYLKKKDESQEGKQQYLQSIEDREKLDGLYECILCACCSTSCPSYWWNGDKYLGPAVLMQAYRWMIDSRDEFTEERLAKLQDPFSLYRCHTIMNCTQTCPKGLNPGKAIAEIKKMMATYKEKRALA
T1 sequence (Q641Z9 1-169): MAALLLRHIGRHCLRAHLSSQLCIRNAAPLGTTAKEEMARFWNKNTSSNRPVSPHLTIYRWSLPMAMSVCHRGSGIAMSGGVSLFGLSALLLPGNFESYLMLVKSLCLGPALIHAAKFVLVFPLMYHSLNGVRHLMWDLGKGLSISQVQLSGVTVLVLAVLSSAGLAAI
T1 sequence (Q6PCT8 57-159): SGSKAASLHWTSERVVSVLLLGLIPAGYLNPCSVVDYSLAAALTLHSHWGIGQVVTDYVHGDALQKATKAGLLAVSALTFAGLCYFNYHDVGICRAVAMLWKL

COC(=O)c1ccc2c(c1)NC(=O)/C2=C(\Nc1ccc(N(C)C(=O)CN2CCN(C)CC2)cc1)c1ccccc1 [Nintedanib]
1: DILI potential (based on labeling) ([7]; 1 DILI positive, 0 negative according to labeling, ref product labeling) | DILI potential (based on labeling) ([7]; ref FDA product labeling)
W&P: ALT↑: Labeling for DILI ([7]; BBW: black box warning, W&P: Warnings and Precautions, ref product labeling)
0: Cytochrome c release 1XCmax ([1]; 1XCmax) | Cytochrome c release 2.5XCmax ([1]; 2.5XCmax) | Cytochrome c release 5XCmax ([1]; 5XCmax) | Cytochrome c release 10XCmax ([1]; 10XCmax) | Cytochrome c release 20XCmax ([1]; 20XCmax) | Cytochrome c release 30XCmax ([1]; 30XCmax) | Cytochrome c release 50XCmax ([1]; 50XCmax) | Cytochrome c release 100XCmax ([1]; 100XCmax) | ROS measured by CM-H2DCFDA at 1XCmax ([2]; 1XCmax) | ROS measured by CM-H2DCFDA at 2.5XCmax ([2]; 2.5XCmax) | ROS measured by CM-H2DCFDA at 5XCmax ([2]; 5XCmax) | ROS measured by CM-H2DCFDA at 10XCmax ([2]; 10XCmax) | ROS measured by CM-H2DCFDA at 20XCmax ([2]; 20XCmax) | ROS measured by CM-H2DCFDA at 30XCmax ([2]; 30XCmax) | ROS measured by CM-H2DCFDA at 50XCmax ([2]; 50XCmax) | ROS measured by CM-H2DCFDA at 100XCmax ([2]; 100XCmax) | RCC III at 100XCmax [3] | State 3 respiration driven by glutamate/malate at 1XCmax ([4]; 1XCmax) | State 3 respiration driven by succinate at 1XCmax ([4]; 1XCmax) | State 4 respiration driven by glutamate/malate at 1XCmax ([4]; 1XCmax) | State 4 respiration driven by succinate at 1XCmax ([4]; 1XCmax) | State 3 respiration driven by glutamate/malate at 2.5XCmax ([4]; 2.5XCmax) | State 3 respiration driven by succinate at 2.5XCmax ([4]; 2.5XCmax) | State 4 respiration driven by glutamate/malate at 2.5XCmax ([4]; 2.5XCmax) | State 4 respiration driven by succinate at 2.5XCmax ([4]; 2.5XCmax) | State 3 respiration driven by glutamate/malate at 5XCmax ([4]; 5XCmax) | State 3 respiration driven by succinate at 5XCmax ([4]; 5XCmax) | State 4 respiration driven by glutamate/malate at 5XCmax ([4]; 5XCmax) | State 4 respiration driven by succinate at 5XCmax ([4]; 5XCmax) | State 3 respiration driven by glutamate/malate at 10XCmax ([4]; 10XCmax) | State 3 respiration driven by succinate at 10XCmax ([4]; 10XCmax) | State 4 respiration driven by glutamate/malate at 10XCmax ([4]; 10XCmax) | State 4 respiration driven by succinate at 10XCmax ([4]; 10XCmax) | State 3 respiration driven by glutamate/malate at 20XCmax ([4]; 20XCmax) | State 3 respiration driven by succinate at 20XCmax ([4]; 20XCmax) | State 4 respiration driven by glutamate/malate at 20XCmax ([4]; 20XCmax) | State 4 respiration driven by succinate at 20XCmax ([4]; 20XCmax) | State 3 respiration driven by glutamate/malate at 30XCmax ([4]; 30XCmax) | State 3 respiration driven by succinate at 30XCmax ([4]; 30XCmax) | State 4 respiration driven by glutamate/malate at 30XCmax ([4]; 30XCmax) | State 4 respiration driven by succinate at 30XCmax ([4]; 30XCmax) | State 3 respiration driven by glutamate/malate at 50XCmax ([4]; 50XCmax) | State 3 respiration driven by succinate at 50XCmax ([4]; 50XCmax) | State 4 respiration driven by glutamate/malate at 50XCmax ([4]; 50XCmax) | State 4 respiration driven by succinate at 50XCmax ([4]; 50XCmax) | State 3 respiration driven by glutamate/malate at 100XCmax ([4]; 100XCmax) | State 3 respiration driven by succinate at 100XCmax ([4]; 100XCmax) | State 4 respiration driven by glutamate/malate at 100XCmax ([4]; 100XCmax) | State 4 respiration driven by succinate at 100XCmax ([4]; 100XCmax) | Swelling 1XCmax ([5]; 1XCmax) | Swelling 2.5XCmax ([5]; 2.5XCmax) | Swelling 5XCmax ([5]; 5XCmax) | Swelling 10XCmax ([5]; 10XCmax) | Swelling 20XCmax ([5]; 20XCmax) | Swelling 30XCmax ([5]; 30XCmax) | Swelling 50XCmax ([5]; 50XCmax) | Swelling 100XCmax ([5]; 100XCmax) | RCC I at 10XCmax [6] | RCC V at 5XCmax ([8]; 5XCmax) | RCC V at 50XCmax ([8]; 50XCmax) | RCC II at 1.0XCmax ([9]; 1.0XCmax) | RCC II at 2.5XCmax ([9]; 2.5XCmax) | RCC II at 5XCmax ([9]; 5XCmax) | RCC II at 10XCmax ([9]; 10XCmax) | RCC II at 20XCmax ([9]; 20XCmax) | RCC II at 30XCmax ([9]; 30XCmax) | RCC II at 50XCmax ([9]; 50XCmax) | RCC II at 100XCmax ([9]; 100XCmax)
0.06 µM: Cmax ([10]; human therapeutic Cmax at FDA recommended dosages, ref product labeling and drug approval packages at the official FDA website) | Cmax ([10]; read-out: Cmax at µM, human therapeutic maximal blood concentration, ref product labeling)
0.0349 µg/mL: Cmax (ng or µg/ml) ([10]; human therapeutic maximal blood concentration, ref product labeling)
W&P: ALT↑/monitoring: labeling for DILI ([7]; W&P warnings and precautions, BBW black box warnings, ref FDA product labeling)

— paper PMC5515969, “Effects of 31 FDA approved small-molecule kinase inhibitors on isolated rat liver mitochondria” (Archives of Toxicology, 2016)
